How the values were obtained:
[1] = target: T1, wild-type ALK2 (aa172-499) (Homo sapiens (Human), UniProt Q04771); test: ADPGlo biochemical autophosphorylation assay, ALK2; conditions: 15 μm ATP, 60 min at 32° C.
[2] = target: ALK3 (aa198-525) (Homo sapiens (Human), UniProt P36894); test: ADPGlo biochemical autophosphorylation assay, ALK3; conditions: 15 μm ATP, 60 min at 32° C.
[3] = target: T1, wild-type ALK2 (aa172-499); test: Caliper biochemical peptide phosphorylation assay, ALK2; conditions: 15 μm ATP, 60 min at 30° C.; read-out: ALK2 EPK (IC50)
[4] = target: ALK1 (aa166-493) (Homo sapiens (Human), UniProt P37023); test: Caliper biochemical peptide phosphorylation assay, ALK1; conditions: 15 μm ATP, 60 min at 30° C.; read-out: ALK1 EPK (IC50)
Sequence of ALK1 (aa166-493) (P37023 166-493): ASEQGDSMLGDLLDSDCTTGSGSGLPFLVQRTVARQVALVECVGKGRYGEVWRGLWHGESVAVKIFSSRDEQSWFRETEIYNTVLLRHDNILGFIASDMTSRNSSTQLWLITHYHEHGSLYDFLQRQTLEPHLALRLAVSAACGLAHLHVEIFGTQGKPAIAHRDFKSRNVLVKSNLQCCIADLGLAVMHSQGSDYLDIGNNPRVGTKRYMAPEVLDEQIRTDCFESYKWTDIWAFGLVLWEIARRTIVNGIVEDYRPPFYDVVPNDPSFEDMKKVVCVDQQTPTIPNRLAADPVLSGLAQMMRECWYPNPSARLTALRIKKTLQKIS

[5] = target: ALK5 (aa162-503) (Homo sapiens (Human), UniProt P36897); test: Caliper biochemical peptide phosphorylation assay, ALK5; conditions: 15 μm ATP, 60 min at 30° C.; read-out: ALK5 EPK (IC50)
Sequence of ALK5 (aa162-503) (P36897 162-503): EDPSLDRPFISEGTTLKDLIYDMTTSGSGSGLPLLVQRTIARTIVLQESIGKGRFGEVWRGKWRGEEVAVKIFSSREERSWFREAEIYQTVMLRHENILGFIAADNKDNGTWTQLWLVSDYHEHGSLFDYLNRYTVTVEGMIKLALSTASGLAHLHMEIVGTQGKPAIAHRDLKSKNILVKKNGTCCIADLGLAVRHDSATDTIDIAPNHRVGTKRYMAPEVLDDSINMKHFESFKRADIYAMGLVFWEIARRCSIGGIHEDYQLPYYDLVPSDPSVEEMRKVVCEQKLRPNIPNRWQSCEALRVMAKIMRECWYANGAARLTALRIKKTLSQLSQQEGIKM

[6] = target: ALK6 (aa168-495) (Homo sapiens (Human), UniProt O00238); test: Caliper biochemical peptide phosphorylation assay, ALK6; conditions: 15 μm ATP, 60 min at 30° C.; read-out: ALK6 EPK (IC50)
Sequence of ALK6 (aa168-495) (O00238 168-495): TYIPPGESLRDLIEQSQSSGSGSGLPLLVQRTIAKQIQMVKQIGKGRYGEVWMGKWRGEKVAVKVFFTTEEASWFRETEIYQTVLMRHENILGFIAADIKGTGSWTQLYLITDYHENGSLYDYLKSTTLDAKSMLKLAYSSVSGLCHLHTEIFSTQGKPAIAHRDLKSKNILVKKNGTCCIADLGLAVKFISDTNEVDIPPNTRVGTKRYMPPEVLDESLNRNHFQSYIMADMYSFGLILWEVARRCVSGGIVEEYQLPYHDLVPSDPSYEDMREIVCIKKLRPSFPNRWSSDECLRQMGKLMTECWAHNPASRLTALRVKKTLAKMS

[7] = system: BMP response element (BRE) luciferase reporter in HuH7 cells, BMP6 stimulated; test: BMP signaling reporter gene assay; assay type: cell-based; conditions: Homo sapiens, Huh-7; HuH7 BRE-luciferase, BMP6 100 ng/ml, 5 hours; read-out: MSD BMP RGA IC50

Sequence of ALK3 (aa198-525) (P36894 198-525): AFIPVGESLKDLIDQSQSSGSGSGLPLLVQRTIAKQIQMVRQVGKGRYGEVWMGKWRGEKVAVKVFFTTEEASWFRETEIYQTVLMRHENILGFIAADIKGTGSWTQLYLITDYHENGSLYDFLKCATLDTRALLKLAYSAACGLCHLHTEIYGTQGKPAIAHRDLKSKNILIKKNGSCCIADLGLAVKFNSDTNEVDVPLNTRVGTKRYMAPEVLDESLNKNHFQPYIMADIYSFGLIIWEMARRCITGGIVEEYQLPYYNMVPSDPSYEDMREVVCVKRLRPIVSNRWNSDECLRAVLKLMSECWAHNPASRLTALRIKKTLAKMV
T1 sequence (Q04771 172-499): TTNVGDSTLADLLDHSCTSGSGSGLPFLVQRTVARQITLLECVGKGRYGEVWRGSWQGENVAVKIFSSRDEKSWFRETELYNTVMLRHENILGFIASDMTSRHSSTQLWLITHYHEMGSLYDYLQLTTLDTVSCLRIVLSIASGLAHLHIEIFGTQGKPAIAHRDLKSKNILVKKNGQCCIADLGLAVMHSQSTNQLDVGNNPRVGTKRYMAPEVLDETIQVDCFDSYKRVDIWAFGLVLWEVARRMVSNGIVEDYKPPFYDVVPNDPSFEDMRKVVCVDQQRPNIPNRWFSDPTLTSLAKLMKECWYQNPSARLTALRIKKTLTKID

Q: How did the IC50 [1] turn out when `Nc1ncc(-c2ccc([C@@]34C[C@@H]3CN(CCC(F)(F)F)C4)cc2)cc1C(=O)N[C@H]1CC[C@H](O)CC1` [Example 47, 2-amino-N-((1r,4R)-4-hydroxycyclohexyl)-5-(4-((1R,5S)-3-(3,3,3-trifluoropropyl)-3-azabicyclo[3.1.0]hexan-1-yl)phenyl)nicotinamide] was run?
A: 0.021 µM

Q: And the IC50 [2]?
A: 1.3 µM

Q: What about the IC50 [3] of the same compound?
A: 0.025 µM

Q: And the IC50 [4]?
A: 0.29 µM

Q: What about the IC50 [5] of the same compound?
A: 4.7 µM

Q: And the IC50 [6]?
A: 3.5 µM

Q: And the IC50 [7]?
A: 0.13 µM

Q: Which IC50 [1] does the source give for `Nc1ncc(-c2ccc([C@@]34C[C@@H]3CN(CCF)C4)cc2)cc1C(=O)N[C@H]1CC[C@H](O)CC1` [Example 48, 2-amino-5-(4-((1R,5S)-3-(2-fluoroethyl)-3-azabicyclo[3.1.0]hexan-1-yl)phenyl)-N-((1r,4R)-4-hydroxycyclohexyl)nicotinamide] here?
A: 0.008 µM

Q: And the IC50 [2]?
A: 0.97 µM

Q: And the IC50 [3]?
A: 0.034 µM

Q: And the IC50 [4]?
A: 0.12 µM

Q: What about the IC50 [5] of the same compound?
A: 5.3 µM

Q: What about the IC50 [6] of the same compound?
A: 4.4 µM

Q: And the IC50 [7]?
A: 0.36 µM

Q: `CC(F)(F)CN1C[C@H]2C[C@@]2(c2ccc(-c3cnc(N)c(C(=O)N[C@H]4CC[C@H](O)CC4)c3)cc2)C1` [Example 50, 2-amino-5-(4-((1R,5S)-3-(2,2-difluoropropyl)-3-azabicyclo[3.1.0]hexan-1-yl)phenyl)-N-((1r,4R)-4-hydroxycyclohexyl)nicotinamide] was tested. Which IC50 [1] did it give?
A: 0.011 µM

Q: And the IC50 [2]?
A: 2.4 µM

Q: What about the IC50 [3] of the same compound?
A: 0.037 µM

Q: What about the IC50 [4] of the same compound?
A: 0.5 µM

Q: What about the IC50 [5] of the same compound?
A: 6.4 µM

Q: And the IC50 [6]?
A: 5.1 µM

Q: What about the IC50 [7] of the same compound?
A: 0.825 µM

Q: Which results are given for `N#CCCN1C[C@@H]2C[C@]2(c2ccc(-c3cnc(N)c(C(=O)N[C@H]4CC[C@H](O)CC4)c3)cc2)C1` [Example 51, 2-amino-5-(4-((1S,5R)-3-(2-cyanoethyl)-3-azabicyclo[3.1.0]hexan-1-yl)phenyl)-N-((1r,4S)-4-hydroxycyclohexyl)nicotinamide]?
A: IC50 [1]: 0.016 µM; IC50 [2]: 0.78 µM; IC50 [3]: 0.031 µM; IC50 [4]: 0.12 µM; IC50 [5]: 1.4 µM; IC50 [6]: 1.7 µM; IC50 [7]: 0.064 µM

Q: How did the IC50 [1] turn out when `Nc1ncc(-c2ccc(OCCCN3CCOCC3)cc2)cc1C(=O)NC1CCCCC1` [Example 52, 2-amino-N-cyclohexyl-5-(4-(3-morpholinopropoxy)phenyl)nicotinamide] was run?
A: 0.067 µM

Q: What about the IC50 [2] of the same compound?
A: 2.8 µM

Q: What about the IC50 [3] of the same compound?
A: 0.031 µM

Q: And the IC50 [4]?
A: 0.97 µM

Q: And the IC50 [5]?
A: 8.6 µM

Q: And the IC50 [6]?
A: 20.2 µM

Q: And the IC50 [7]?
A: 0.34 µM

Q: For `C#CCN1C[C@@H]2C[C@]2(c2ccc(-c3cnc(N)c(C(=O)N[C@H]4CC[C@H](O)CC4)c3)cc2)C1` [Example 53, 2-amino-N-((1r,4S)-4-hydroxycyclohexyl)-5-(4-((1S,5R)-3-(prop-2-yn-1-yl)-3-azabicyclo[3.1.0]hexan-1-yl)phenyl)nicotinamide], which IC50 [1] is on record?
A: 0.013 µM

Q: What about the IC50 [2] of the same compound?
A: 1.2 µM

Q: And the IC50 [3]?
A: 0.032 µM

Q: And the IC50 [4]?
A: 0.19 µM

Q: And the IC50 [5]?
A: 2 µM

Q: And the IC50 [6]?
A: 2.5 µM

Q: And the IC50 [7]?
A: 0.05 µM

Q: Which results are given for `C#CCN1C[C@H]2C[C@@]2(c2ccc(-c3cnc(N)c(C(=O)N[C@H]4CC[C@H](O)CC4)c3)cc2)C1` [Example 54, 2-amino-N-((1r,4R)-4-hydroxycyclohexyl)-5-(4-((1R,5S)-3-(prop-2-yn-1-yl)-3-azabicyclo[3.1.0]hexan-1-yl)phenyl)nicotinamide]?
A: IC50 [1]: 0.011 µM; IC50 [2]: 0.92 µM; IC50 [3]: 0.033 µM; IC50 [4]: 0.14 µM; IC50 [5]: 5.3 µM; IC50 [6]: 3.5 µM; IC50 [7]: 0.395 µM

Q: `C[C@H](c1ccc(-c2cnc(N)c(C(=O)N[C@H]3CC[C@H](O)CC3)c2)c(Cl)c1)N1CC2(COC2)C1` [Example 55, 5-(4-((R)-1-(2-oxa-6-azaspiro[3.3]heptan-6-yl)ethyl)-2-chlorophenyl)-2-amino-N-((1r,4R)-4-hydroxycyclohexyl)nicotinamide] was tested. Which IC50 [1] did it give?
A: 0.022 µM

Q: What about the IC50 [2] of the same compound?
A: 2.44 µM

Q: What about the IC50 [3] of the same compound?
A: 0.03 µM

Q: And the IC50 [4]?
A: 0.627 µM

Q: What about the IC50 [5] of the same compound?
A: 5.03 µM

Q: And the IC50 [6]?
A: 2.9 µM

Q: And the IC50 [7]?
A: 0.543 µM

Q: How did the IC50 [1] turn out when `C[C@@H]1CCCN1Cc1ccc(-c2cnc(N)c(C(=O)N[C@H]3CC[C@](C)(O)CC3)c2)c(F)c1` [Example 56, 2-amino-5-(2-fluoro-4-(((R)-2-methylpyrrolidin-1-yl)methyl)phenyl)-N-((1r,4R)-4-hydroxy-4-methylcyclohexyl)nicotinamide] was run?
A: 0.028 µM

Q: What about the IC50 [2] of the same compound?
A: 9.9 µM

Q: And the IC50 [3]?
A: 0.03 µM

Q: And the IC50 [4]?
A: 0.93 µM

Q: And the IC50 [5]?
A: 5.8 µM

Q: And the IC50 [6]?
A: 10 µM

Q: What about the IC50 [7] of the same compound?
A: 0.285 µM

Q: How did the IC50 [1] turn out when `C[C@]1(O)CC[C@H](NC(=O)c2cc(-c3ccc([C@]45C[C@H]4CN(C4CCC(F)(F)CC4)C5)cc3)cnc2N)CC1` [Example 58, 2-amino-5-(4-((1S,5R)-3-(4,4-difluorocyclohexyl)-3-azabicyclo[3.1.0]hexan-1-yl)phenyl)-N-((1r,4S)-4-hydroxy-4-methylcyclohexyl)nicotinamide] was run?
A: 0.025 µM

Q: And the IC50 [2]?
A: 3.73 µM

Q: What about the IC50 [3] of the same compound?
A: 0.032 µM

Q: What about the IC50 [4] of the same compound?
A: 0.663 µM

Q: What about the IC50 [5] of the same compound?
A: 7.55 µM

Q: What about the IC50 [6] of the same compound?
A: 8.4 µM

Q: And the IC50 [7]?
A: 0.143 µM

Q: Which IC50 [1] does the source give for `C[C@H](c1ccc(-c2cnc(N)c(C(=O)N[C@H]3CC[C@](C)(O)CC3)c2)cc1)N1CC2(COC2)C1` [Example 59, 5-(4-((R)-1-(2-oxa-6-azaspiro[3.3]heptan-6-yl)ethyl)phenyl)-2-amino-N-((1r,4R)-4-hydroxy-4-methylcyclohexyl)nicotinamide] here?
A: 0.024 µM

Q: And the IC50 [2]?
A: 2.7 µM

Q: And the IC50 [3]?
A: 0.033 µM

Q: And the IC50 [4]?
A: 0.77 µM

Q: What about the IC50 [5] of the same compound?
A: 9.1 µM

Q: What about the IC50 [6] of the same compound?
A: 7.7 µM

Q: And the IC50 [7]?
A: 0.405 µM

Q: Which results are given for `CC#CCN1C[C@H]2C[C@@]2(c2ccc(-c3cnc(N)c(C(=O)N[C@H]4CC[C@H](O)CC4)c3)cc2)C1` [Example 60, 2-amino-5-(4-((1R,5S)-3-(but-2-yn-1-yl)-3-azabicyclo[3.1.0]hexan-1-yl)phenyl)-N-((1r,4R)-4-hydroxycyclohexyl)nicotinamide]?
A: IC50 [1]: 0.011 µM; IC50 [2]: 0.99 µM; IC50 [3]: 0.042 µM; IC50 [4]: 0.17 µM; IC50 [5]: 6.3 µM; IC50 [6]: 6.3 µM; IC50 [7]: 0.084 µM

Q: With `Nc1ncc(-c2ccc(N3CCCCC3)cc2)cc1C(=O)NC1CCCCC1` [Example 61, 2-amino-N-cyclohexyl-5-(4-(piperidin-1-yl)phenyl)nicotinamide] as the compound, how does the IC50 [1] read?
A: 0.043 µM

Q: And the IC50 [2]?
A: 2.1 µM

Q: What about the IC50 [3] of the same compound?
A: 0.035 µM

Q: And the IC50 [4]?
A: 0.94 µM

Q: And the IC50 [5]?
A: 7.2 µM

Q: What about the IC50 [6] of the same compound?
A: 20.2 µM

Q: What about the IC50 [7] of the same compound?
A: 2.3 µM

Q: For `Nc1ncc(-c2ccc([C@]34C[C@H]3CN(C3COC3)C4)cc2)cc1C(=O)NC12CCC(O)(CC1)CC2` [Example 63, 2-amino-N-(4-hydroxybicyclo[2.2.2]octan-1-yl)-5-(4-((1S,5R)-3-(oxetan-3-yl)-3-azabicyclo[3.1.0]hexan-1-yl)phenyl)nicotinamide], which IC50 [1] is on record?
A: 0.091 µM

Q: And the IC50 [2]?
A: 1.8 µM

Q: And the IC50 [3]?
A: 0.057 µM

Q: And the IC50 [4]?
A: 0.94 µM

Q: And the IC50 [5]?
A: 6.7 µM

Q: What about the IC50 [6] of the same compound?
A: 3.5 µM

Q: And the IC50 [7]?
A: 0.39 µM

Q: What does the source list for `Nc1ncc(-c2ccc([C@@]34C[C@@H]3CN(C3COC3)C4)cc2)cc1C(=O)NC12CCC(O)(CC1)CC2` [Example 64, 2-amino-N-(4-hydroxybicyclo[2.2.2]octan-1-yl)-5-(4-((1R,5S)-3-(oxetan-3-yl)-3-azabicyclo[3.1.0]hexan-1-yl)phenyl)nicotinamide]?
A: IC50 [1]: 0.11 µM; IC50 [2]: 2.2 µM; IC50 [3]: 0.063 µM; IC50 [4]: 1 µM; IC50 [5]: 7.5 µM; IC50 [6]: 3.8 µM; IC50 [7]: 0.38 µM

From patent US10710980B2, “Aminopyridine derivatives and their use as selective ALK-2 inhibitors” (priority 2016, dated 2020)
